Source: patent US20140275509A1, “MULTIFUNCTIONALIZED MATERIALS” (Nanoimmunotech SRL, priority 2011, published 2014)

System: Human tumor cells Hmy-2 (HLA-DR class II positive B cell line)
Test: Recognition, internalization, labeling and drug release
Type: cell-based
Details: drug transported into the cell by cyclodextrin on the BH1/fluorophore/penetrating peptide gold nanoparticles, 1:1:1:1 molar ratio
Source text: The antibody described above, BH1 functionalized with the PNA-B sequence, has been conjugated to 13 nm gold nanoparticles previously functionalized with the PNA-A sequence by means of the complementary strand hybridization technique. […] On the other hand and due to the possibility of producing a multifunctionalization by using the presented technology, molecules of a cell-penetrating peptide with the DNA-B sequence could further be bound to the nanostructures by hybridization, as occurred with BH1 to the nanoparticles. Furthermore and continuing with the possibility of producing multifunctionalization by using the presented technology, fluorescent labeling molecules functionalized with the DNA-B sequence could be bound to the previous nanostructures by hybridization, as occurred with the BH1 to the nanoparticles. […] To conclude and continuing with multifunctionalization allowed by the presented technology, molecules of cyclodextrin functionalized with the DNA-B sequence could be bound to the previous nanostructures by hybridization as occurred with BH1, fluorophore and penetrating peptide to the nanoparticles, using a 1:1:1:1 molar ratio, respectively.

**Q.** `CC1(C)CCC2=C(O1)c1ccccc1C(=O)C2=O` [β-Lapachone] was tested. Which cell death did it give?
**A.** selectively induced cell death
